Source: patent US4387102A, “4-(N-(3',4'-Methylenedioxybenzylidene)-aminomethyl)cyclohex ane-1-carboxylic acid and derivatives thereof and pharmaceutical composition thereof” (Kureha Kagaku Kogyo Kabushiki Kaisha, priority 1980, dated 1983)

Tests used:
[1] = system: female JCL-ICR mice; experiment: Acute oral toxicity test; type: in vivo, mouse; details: 3000 mg/kg, female JCL-ICR mice of five weeks
Method: (5-2) Acute oral toxicity test were carried out by orally administering aqueous solutions of sodium 4-[N-(3',4'-methylenedioxybenzylidene)aminomethyl]cyclohexane-1-carboxylate to groups of female JCL-ICR mice of five weeks after birth.

[2] = system: rabbit's platelets; experiment: Inhibition of blood platelet aggregation induced by sodium arachidonate (platelet aggregation tracer PAT 4A); type: cell-based; details: 400 micromols sodium arachidonate
Method: (5-1) Test for inhibition of platelet aggregation was carried out while using rabbit's platelets, an aqueous physiological saline solution of sodium 4-[N-([…]-methylenedioxybenzylidene)aminomethyl]cyclohexane-1-carboxylate and 400 micromols of sodium arachidonate as the aggregation agent in a platelet aggregation tracer PAT 4A (made by Niko Bioscience Company, Japan) as the testing apparatus.

[3] = system: polymorphonuclear leukocytes; experiment: Inhibition of migration of polymorphonuclear leukocytes to the inflammatory region (Granuloma-CMC-Pouch method); type: in vivo, rat; details: single oral dose, male Donryu rats, present compound 100 mg/kg, indomethacin 10 mg/kg (footnote)
Method: Tests for inhibition of migration of polymorphonuclear leukocytes to the inflammatory region due to sodium 4-[N-(3',4'-methylenedioxybenzylidene)aminomethyl]cyclohexane-1-carboxylate were carried out following the method of Granuloma-CMC-Pouch (refer to Ishikawa et al. J. Pharmaceut. Soc. Jap., Vol. 88, page 1472, 1968).
Namely, after cutting the hair on the back of male rats (Donryu, body weight: 150 g), 5 ml of air was injected subcutaneously into the hair-cut region and further, 5 ml of aqueous 2% (W/V) solution of sodium carboxymethyl cellulose (CMC) at 37° C. was injected.
Specimens of the liquid (0.5 ml, each) effused into the pouch were collected at 3, 6 and 24 hours after 2% CMC solution were injected respectively and then the number of polymorphonuclear leukocytes in the specimen was counted after staining to determine the rate of inhibition of migration of the polymorpholeukocyte as compared to the number of the polymorpholeukocytes in the specimen collected from control animal to which the aqueous CMC solution was injected after air injection.
In this test, sodium 4-[N-(3',4'-methylenedioxybenzylidene)aminomethyl]cyclohexane-1-carboxylate was orally administered as a solution in aqueous physiological saline solution at a dose of 100 mg/kg at the time of injecting the solution of CMC, and as a control, […] at the time of injecting the solution of CMC.

[4] = 3 hours of injection of CMC, control 3.5 × 10^3
[5] = 6 hours of injection of CMC, control 5.9 × 10^3
[6] = 24 hours of injection of CMC, control 14.9 × 10^3

| SMILES | abnormality in acute oral toxicity test [1] | percent of inhibition of the aggregation of the platelets by sodium arachidonate ([2]; 500 micromols compound) [%] | percent of inhibition of the aggregation of the platelets by sodium arachidonate ([2]; 1000 micromols compound) [%] | percent of inhibition of the aggregation of the platelets by sodium arachidonate ([2]; 1500 micromols compound) [%] | R.I. (inhibitory rate of migration of polymorphonuclear leukocytes into the pouch as compared to control) ([3]; 3 hours of injection of CMC) [%] | Number of polymorphonuclear leukocytes [3, 4] | R.I. (inhibitory rate of migration of polymorphonuclear leukocytes into the pouch as compared to control) ([3]; 6 hours of injection of CMC) [%] | Number of polymorphonuclear leukocytes [3, 5] | R.I. (inhibitory rate of migration of polymorphonuclear leukocytes into the pouch as compared to control) ([3]; 24 hours of injection of CMC) [%] | Number of polymorphonuclear leukocytes [3, 6] |
| --- | --- | --- | --- | --- | --- | --- | --- | --- | --- | --- |
| O=C([O-])C1CCC(CN=Cc2ccc3c(c2)OCO3)CC1.[Na+] (stereo not shown) [Present compound, sodium 4-[N-(3',4'-methylenedioxybenzylidene)aminomethyl]cyclohexane-1-carboxylate] | no abnormality was found | 30 | 75 | 100 | 46 | 1.9 × 10^3 Number/mm^3 | 54 | 2.7 × 10^3 Number/mm^3 | 32 | 10.1 × 10^3 Number/mm^3 |
| COc1ccc2c(c1)c(CC(=O)O)c(C)n2C(=O)c1ccc(Cl)cc1 [Indomethacin, indomethacin, reference compound] |  |  |  |  | 34 | 2.3 × 10^3 Number/mm^3 | 31 | 4.1 × 10^3 Number/mm^3 | 28 | 10.8 × 10^3 Number/mm^3 |
